Measurements as given in PubChem BioAssay (NCI).
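Tested at 5 concentrations; 48 h exposure; 96-well plates; endpoints linearly interpolated, else capped at highest concentration. TGI: concentration producing complete growth inhibition.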

Assays:
Assay in all cases: NCI tumour cell line growth inhibition, 48 h
DMS 273 small cell lung = system: DMS 273 small cell lung
CCRF-CEM leukemia = system: CCRF-CEM leukemia
ACHN renal = system: ACHN renal
A549 NSCLC = system: A549 NSCLC
OVCAR-5 ovarian = system: OVCAR-5 ovarian
M14 melanoma = system: M14 melanoma
NCI-H460 lung = system: NCI-H460 lung
MALME-3M melanoma = system: MALME-3M melanoma
RPMI-8226 leukemia = system: RPMI-8226 leukemia
SNB-78 CNS = system: SNB-78 CNS
786-0 renal = system: 786-0 renal
DMS 114 small cell lung = system: DMS 114 small cell lung
SK-OV-3 ovarian = system: SK-OV-3 ovarian
MOLT-4 leukemia = system: MOLT-4 leukemia
SF-295 CNS = system: SF-295 CNS
COLO 205 colon = system: COLO 205 colon
LXFL 529 NSCLC = system: LXFL 529 NSCLC
DLD-1 colon = system: DLD-1 colon
SNB-19 CNS = system: SNB-19 CNS
UACC-62 melanoma = system: UACC-62 melanoma
A498 renal = system: A498 renal
NCI-H522 lung = system: NCI-H522 lung
LOX IMVI melanoma = system: LOX IMVI melanoma
HCT-15 colon = system: HCT-15 colon
HCT-116 colon = system: HCT-116 colon
KM12 colon = system: KM12 colon
SW-620 colon = system: SW-620 colon
UACC-257 melanoma = system: UACC-257 melanoma
SK-MEL-5 melanoma = system: SK-MEL-5 melanoma
CAKI-1 renal = system: CAKI-1 renal
UO-31 renal = system: UO-31 renal
KM20L2 colon = system: KM20L2 colon
TK-10 renal = system: TK-10 renal
OVCAR-8 ovarian = system: OVCAR-8 ovarian
IGROV1 ovarian = system: IGROV1 ovarian
SK-MEL-2 melanoma = system: SK-MEL-2 melanoma
SN12C renal = system: SN12C renal
EKVX NSCLC = system: EKVX NSCLC
HL-60(TB) leukemia = system: HL-60(TB) leukemia
K-562 leukemia = system: K-562 leukemia
SF-539 CNS = system: SF-539 CNS
SR leukemia = system: SR leukemia
M19-MEL melanoma = system: M19-MEL melanoma
SF-268 CNS = system: SF-268 CNS
OVCAR-4 ovarian = system: OVCAR-4 ovarian
HOP-62 NSCLC = system: HOP-62 NSCLC
HT29 colon = system: HT29 colon
OVCAR-3 ovarian = system: OVCAR-3 ovarian
HCC-2998 colon = system: HCC-2998 colon
HOP-92 NSCLC = system: HOP-92 NSCLC
U251 CNS = system: U251 CNS
NCI-H23 lung = system: NCI-H23 lung
NCI-H226 lung = system: NCI-H226 lung
SNB-75 CNS = system: SNB-75 CNS
RXF 393 renal = system: RXF 393 renal
HOP-18 NSCLC = system: HOP-18 NSCLC
SK-MEL-28 melanoma = system: SK-MEL-28 melanoma

O=C1C=CC=CC2CC=C[C@@H](O)C12 (stereo not given in full)
TGI (DMS 273 small cell lung): 51.5 µM | TGI (CCRF-CEM leukemia): > 100 µM | TGI (ACHN renal): 31.8 µM | TGI (A549 NSCLC): 67.7 µM | TGI (OVCAR-5 ovarian): 63 µM | TGI (M14 melanoma): 50.7 µM | TGI (NCI-H460 lung): 38 µM | TGI (MALME-3M melanoma): 46.8 µM | TGI (RPMI-8226 leukemia): 15.3 µM | TGI (SNB-78 CNS): > 100 µM | TGI (786-0 renal): 33.8 µM | TGI (DMS 114 small cell lung): 38.7 µM | TGI (SK-OV-3 ovarian): > 100 µM | TGI (MOLT-4 leukemia): > 100 µM | TGI (SF-295 CNS): 48.5 µM | TGI (COLO 205 colon): 39.5 µM | TGI (LXFL 529 NSCLC): 36.2 µM | TGI (DLD-1 colon): > 100 µM | TGI (SNB-19 CNS): 54.3 µM | TGI (UACC-62 melanoma): 38.5 µM | TGI (A498 renal): 38.2 µM | TGI (NCI-H522 lung): 26.8 µM | TGI (LOX IMVI melanoma): 38.9 µM | TGI (HCT-15 colon): 35.2 µM | TGI (HCT-116 colon): 27.7 µM | TGI (KM12 colon): 24.5 µM | TGI (SW-620 colon): 35.3 µM | TGI (UACC-257 melanoma): 29.7 µM | TGI (SK-MEL-5 melanoma): 38 µM | TGI (CAKI-1 renal): > 100 µM | TGI (UO-31 renal): 31.5 µM | TGI (KM20L2 colon): 56 µM | TGI (TK-10 renal): > 100 µM | TGI (OVCAR-8 ovarian): > 100 µM | TGI (IGROV1 ovarian): > 100 µM | TGI (SK-MEL-2 melanoma): 58.5 µM | TGI (SN12C renal): 47.2 µM | TGI (EKVX NSCLC): 63.5 µM | TGI (HL-60(TB) leukemia): 37 µM | TGI (K-562 leukemia): > 100 µM | TGI (SF-539 CNS): 63.9 µM | TGI (SR leukemia): 44.2 µM | TGI (M19-MEL melanoma): 34.2 µM | TGI (SF-268 CNS): 54.5 µM | TGI (OVCAR-4 ovarian): > 100 µM | TGI (HOP-62 NSCLC): > 100 µM | TGI (HT29 colon): 37.7 µM

CC(C)=CCC/C(C)=C/CC/C(C)=C/Cc1c(O)c2ccccc2oc1=O
TGI (DMS 273 small cell lung): > 100 µM | TGI (CCRF-CEM leukemia): > 100 µM | TGI (ACHN renal): > 100 µM | TGI (OVCAR-3 ovarian): > 100 µM | TGI (A549 NSCLC): > 100 µM | TGI (M14 melanoma): > 100 µM | TGI (NCI-H460 lung): > 100 µM | TGI (HCC-2998 colon): > 100 µM | TGI (MALME-3M melanoma): > 100 µM | TGI (RPMI-8226 leukemia): > 100 µM | TGI (SNB-78 CNS): > 100 µM | TGI (HOP-92 NSCLC): > 100 µM | TGI (786-0 renal): > 100 µM | TGI (DMS 114 small cell lung): > 100 µM | TGI (SK-OV-3 ovarian): > 100 µM | TGI (MOLT-4 leukemia): > 100 µM | TGI (U251 CNS): > 100 µM | TGI (SF-295 CNS): > 100 µM | TGI (COLO 205 colon): > 100 µM | TGI (LXFL 529 NSCLC): > 100 µM | TGI (DLD-1 colon): > 100 µM | TGI (SNB-19 CNS): > 100 µM | TGI (UACC-62 melanoma): > 100 µM | TGI (NCI-H23 lung): > 100 µM | TGI (NCI-H226 lung): > 100 µM | TGI (NCI-H522 lung): > 100 µM | TGI (LOX IMVI melanoma): > 100 µM | TGI (HCT-15 colon): > 100 µM | TGI (HCT-116 colon): > 100 µM | TGI (KM12 colon): > 100 µM | TGI (SW-620 colon): > 100 µM | TGI (UACC-257 melanoma): > 100 µM | TGI (SNB-75 CNS): > 100 µM | TGI (UO-31 renal): > 100 µM | TGI (KM20L2 colon): > 100 µM | TGI (TK-10 renal): > 100 µM | TGI (OVCAR-8 ovarian): > 100 µM | TGI (IGROV1 ovarian): > 100 µM | TGI (SK-MEL-2 melanoma): > 100 µM | TGI (SN12C renal): > 100 µM | TGI (EKVX NSCLC): > 100 µM | TGI (HL-60(TB) leukemia): > 100 µM | TGI (K-562 leukemia): > 100 µM | TGI (RXF 393 renal): > 100 µM | TGI (SF-539 CNS): > 100 µM | TGI (SR leukemia): > 100 µM | TGI (M19-MEL melanoma): > 100 µM | TGI (SF-268 CNS): > 100 µM | TGI (OVCAR-4 ovarian): > 100 µM | TGI (HOP-62 NSCLC): > 100 µM | TGI (HT29 colon): > 100 µM | TGI (HOP-18 NSCLC): > 100 µM | TGI (SK-MEL-28 melanoma): > 100 µM
